Like-named read-outs stand apart in the source and are kept apart here.
What was measured:
[1] = target: T1, cyclooxygenase-2 (Homo sapiens, UniProt P35354); test: Inhibition of cyclooxygenase-2 activity (PGE2 synthesis in response to arachidonic acid, radioimmunoassay; whole cell and microsomal assays); type: cell-based; conditions: for IC50: read-out: COX-2 IC50
T1 construct: Cells used for whole cell assays, and from which microsomes were prepared for microsomal assays, were human osteosarcoma 143 cells; endogenous in cells; host or cells: human osteosarcoma 143 cells (whole cells or microsomes)
T1 sequence (P35354 18-604): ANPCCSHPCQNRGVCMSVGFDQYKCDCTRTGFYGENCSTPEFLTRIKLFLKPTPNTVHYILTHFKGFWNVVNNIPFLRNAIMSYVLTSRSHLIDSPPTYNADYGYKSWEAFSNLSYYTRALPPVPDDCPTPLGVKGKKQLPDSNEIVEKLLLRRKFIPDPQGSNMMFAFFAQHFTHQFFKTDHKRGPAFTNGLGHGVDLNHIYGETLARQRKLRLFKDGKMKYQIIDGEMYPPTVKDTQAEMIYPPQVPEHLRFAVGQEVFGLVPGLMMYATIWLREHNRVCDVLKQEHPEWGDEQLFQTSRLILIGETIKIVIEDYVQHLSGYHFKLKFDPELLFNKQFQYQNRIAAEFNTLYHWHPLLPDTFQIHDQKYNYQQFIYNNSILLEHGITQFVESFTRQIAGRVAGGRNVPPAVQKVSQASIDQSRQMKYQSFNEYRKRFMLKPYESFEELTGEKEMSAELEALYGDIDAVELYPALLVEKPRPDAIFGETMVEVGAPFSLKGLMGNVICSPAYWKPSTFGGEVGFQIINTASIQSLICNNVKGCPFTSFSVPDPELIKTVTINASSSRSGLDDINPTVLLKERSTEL
Procedure: (§1) Compounds were tested as inhibitors of cyclooxygenase activity in whole cell and microsomal cyclooxygenase assays. Both of these assays measured prostaglandin E2 synthesis in response to arachidonic acid, using a radioimmunoassay. Cells used for whole cell assays, and from which microsomes were prepared for microsomal assays, were human osteosarcoma 143 cells (which specifically express cyclooxygenase-2) and human U-937 cells (which specifically express cyclooxygenase-1). In these assays, 100% activity is defined as the difference between prostaglandin E2 synthesis in the absence and presence of arachidonate addition.
(§2) In the assay, inhibition is determined by measuring the amount of prostaglandin E2 (PGE2) synthesized in the presence of arachidonic acid, cyclooxygenase-1 or cyclooxygenase-2 and a putative inhibitor.

[2] = target: T2, cyclooxygenase-1 (Homo sapiens, UniProt P23219); test: Inhibition of cyclooxygenase-1 activity (PGE2 synthesis in response to arachidonic acid, radioimmunoassay; whole cell and microsomal assays); type: cell-based; conditions: for IC50: table of prepared examples, read-out: COX-1 IC50; for COX-1 inhibition (result in words, with concentration): human U-937 cells, concentration stated in the cell
T2 construct: human U-937 cells (which specifically express cyclooxygenase-1); endogenous in cells; host or cells: human U-937 cells (whole cells or microsomes)
Procedure: as §1, §2

[3] = test system: paw edema; test: Rat paw edema assay (carrageenan); type: in vivo; conditions: po; for Rat Paw EDEMA ED30: 1 hr before carrageenan, paw volume 3 hr later; for Rat Paw Edema ED50: table of prepared examples
Procedure: One hr later, a line was drawn using a permanent marker at the level above the ankle in one hind paw to define the area of the paw to be monitored. The paw volume (VO) was measured using a plethysmometer (Ugo-Basile, Italy) based on the principle of water displacement. […] The animals were sacrificed by CO2 aphyxiation and the absence or presence of stomach lesions scored. Data were compared with the vehicle-control values and percent inhibition calculated. […] At least 6 animals were used at each concentration All treatment groups were coded to eliminate observer bias.

[4] = Rat plasma levels; type: in vivo
[5] = Monkey pharmacokinetics (Cmax, t1/2); type: in vivo

T2 sequence (P23219 24-599): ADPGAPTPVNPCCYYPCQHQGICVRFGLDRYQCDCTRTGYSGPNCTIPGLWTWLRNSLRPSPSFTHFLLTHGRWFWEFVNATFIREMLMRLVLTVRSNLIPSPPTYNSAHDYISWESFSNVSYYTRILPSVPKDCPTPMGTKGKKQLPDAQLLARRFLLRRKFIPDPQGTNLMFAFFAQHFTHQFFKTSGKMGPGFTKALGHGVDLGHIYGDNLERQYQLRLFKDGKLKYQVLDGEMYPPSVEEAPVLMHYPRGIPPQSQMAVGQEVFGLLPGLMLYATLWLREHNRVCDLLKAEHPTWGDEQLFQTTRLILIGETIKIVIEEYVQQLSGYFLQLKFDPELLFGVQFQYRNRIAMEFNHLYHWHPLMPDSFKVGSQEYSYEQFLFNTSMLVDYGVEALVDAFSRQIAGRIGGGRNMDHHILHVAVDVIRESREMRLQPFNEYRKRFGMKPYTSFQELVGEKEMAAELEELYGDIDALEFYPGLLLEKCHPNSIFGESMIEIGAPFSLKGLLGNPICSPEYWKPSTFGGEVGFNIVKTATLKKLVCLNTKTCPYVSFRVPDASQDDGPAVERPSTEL

For `CS(=O)(=O)Nc1cc2c(cc1Sc1ccc(Cl)cc1)C(=O)CC2` [Compound 9], the IC50 ([1]; table of prepared examples) was 100 nM.
For `CS(=O)(=O)Nc1cc2c(cc1Sc1ccc(F)cc1F)C(=O)CC2` [Compound 12, 5-Methanesulfonamido-6-(2,4-difluorophenylthio)-1-indanone], the IC50 [2] was over 10000 nM, the “Rat Paw EDEMA ED30” value [3] was 0.3 ± .1 mpk and the “Rat Paw Edema ED50” value [3] was 0.3 mpk. For the same compound, the “Rat Plasma Levels @ 1 hr” value ([4]; 10 mpk) was 70 @ 10 mpk μg/ml, the Cmax ([5]; in vivo, 5 mg/kg, 5 mpk) was 35000 ng/mL and the half-life ([5]; in vivo, n = 2, estimated, read-out: t½ Monkey (n = 2) (Estimated)) was over 9 h. The “COX-2 % INHB” value ([1]; CONC 10 nM) was 43%, the “COX-2 % INHB” value ([1]; CONC 100 nM) was 87% and the “COX-2 % INHB” value ([1]; CONC 1000 nM) was 91%.
`CS(=O)(=O)Nc1cc2c(cc1Sc1ccc(Cl)cc1F)C(=O)CC2` [Compound 14] gave an IC50 ([1]; table of prepared examples) of 13 nM.
Work on `Cc1ccccc1Sc1cc2c(cc1NS(C)(=O)=O)CCC2=O` [Compound 19] yielded an IC50 ([1]; table of prepared examples) of 100 nM.
Work on `Cc1ccc(Sc2cc3c(cc2NS(C)(=O)=O)CCC3=O)cc1` [Compound 20] yielded an IC50 ([1]; table of prepared examples) of 50 nM.
`CS(=O)(=O)Nc1cc2c(cc1Sc1ccc(F)cc1Cl)C(=O)CC2` [Compound 16] showed an IC50 ([1]; table of prepared examples) of 11 nM.
In the case of `COc1ccc2c(c1)c(CC(=O)O)c(C)n2C(=O)c1ccc(Cl)cc1` [INDOMETHACIN, Indomethacin, reference compound], the “Rat Paw EDEMA ED30” value [3] is reported as 1.1 ± .3 mpk.
Compound `CS(=O)(=O)Nc1cc2c(cc1Sc1ccc(I)cc1)C(=O)CC2` [Compound 11] has an IC50 ([1]; table of prepared examples) of 10 nM.
`C=Cc1ccc(Sc2cc3c(cc2NS(C)(=O)=O)CCC3=O)cc1` [Compound 24] gave an IC50 ([1]; table of prepared examples) of 100 nM.
`CS(=O)(=O)Nc1cc2c(cc1Sc1ccc(C(F)(F)F)cc1)C(=O)CC2` [Compound 22] gave an IC50 ([1]; table of prepared examples) of 50 nM.
With `CS(=O)(=O)Nc1cc2c(cc1Oc1ccc(Cl)cc1Cl)C(=O)CC2` [Compound 4, 5-Methanesulfonamido-6-(2,4-dichlorophenoxy)-1-indanone] the “COX-1 inhibition (result in words, with concentration)” value [2] was “Inactive at 100 μM”, the IC50 [2] was over 100000 nM and the “Rat Paw EDEMA ED30” value [3] was 0.22 mpk. For the same compound, the “Rat Paw Edema ED50” value [3] was 0.22 mpk and the IC50 ([1]; human osteosarcoma 143 cells, PGE2 synthesis) was 8 nM.
With `CS(=O)(=O)Nc1cc2c(cc1Sc1ccccc1)C(=O)CC2` [Compound 6] the IC50 [2] was over 100000 nM, the “Rat Paw Edema ED50” value [3] was 0.16 mpk and the IC50 ([1]; table of prepared examples) was 50 nM.
For `CS(=O)(=O)Nc1cc2c(cc1Oc1ccc(Br)cc1)C(=O)CC2` [Compound 2], the IC50 ([1]; table of prepared examples) was 9 nM.
Compound `CS(=O)(=O)Nc1cc2c(cc1Sc1ccc(F)cc1)C(=O)CC2` [Compound 8] has an IC50 ([1]; table of prepared examples) of 100 nM.
Work on `CS(=O)(=O)Nc1cc2c(cc1Oc1ccccc1)C(=O)CC2` [Compound 1, reference compound] yielded an IC50 ([1]; table of prepared examples) of 30 nM.
With `CS(=O)(=O)Nc1cc2c(cc1Oc1ccc(F)cc1F)C(=O)CC2` [Compound 3, Flosulide, reference compound] the “COX-1 inhibition (result in words, with concentration)” value [2] was “Inactive at 50 μM”, the IC50 [2] was over 50000 nM and the “Rat Paw EDEMA ED30” value [3] was 1.1 ± .4 mpk. The “Rat Paw Edema ED50” value [3] was 0.62 mpk, the “Rat Plasma Levels @ 1 hr” value ([4]; 20 mpk) was 48 @ 20 mpk μg/ml and the “Monkey Cmax” value ([5]; 10 mpk) was 17 @ 10 mpk μg/ml. The “t½ Monkey (n = 2) (Estimated)” value ([5]; n = 2, estimated) was under 4 h.

Reference: patent publication USRE38103E1, “5-methanesulfonamido-1-indanones as an inhibitor of cyclooxygenase-2” (Merck Frosst Canada & Co., priority 1992, dated 2003)
